Literature values as cited in PMC6458983 (Cancer Chemotherapy and Pharmacology, 2019).

Conditions: cited from earlier work

## C#Cc1cccc(Nc2ncnc3cc(OCCOC)c(OCCOC)cc23)c1 [erlotinib]
Patient case study, at the time of ILD diagnosis
  trough plasma concentration: elevated
Three patients at the time of suspected ILD
  median trough concentrations versus patients without ILD: approximately three times higher
